According to patent publication EP1724268A1, “COMPOUND HAVING TGF-BETA INHIBITORY ACTIVITY AND PHARMACEUTICAL COMPOSITION CONTAINING SAME” (KIRIN BEER KABUSHIKI KAISHA, priority 2004, dated 2005):
Read-outs that look alike come from different tables or passages of the source.

Tested on: TGFβ signal
Test: TGFβ signal inhibitory activity, (SBE)4-Luc reporter in A549 cells (Test Examples 1A and 1B)
Format: cell-based, human
Conditions: Homo sapiens
Method in brief: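 Stable A549 line carrying (SBE)4-Luc Smad3-binding reporter treated with compound plus TGFβ-1 (2 ng/ml) for 4 hr; luciferase read by chemiluminescence. Percent inhibition relative to TGFβ-only and untreated cells, tested at 3 µM and 10 µM, some also at 1 µM.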

[1] = A549, 3 µM, compounds of Reference Examples (Test Example 1B), read-out: TGFβ inhibition rate, %
[2] = A549, 10 µM, compounds of Reference Examples (Test Example 1B), read-out: TGFβ inhibition rate, %
[3] = A549, test compound 3 µM, Reference Examples, Table 1B, read-out: TGFβ inhibition rate, %
[4] = A549, test compound 10 µM, Reference Examples, Table 1B, read-out: TGFβ inhibition rate, %

Row | Compound | inhibition at 3 µM [1] [%] | inhibition at 10 µM [2] [%] | inhibition at 3 µM [3] [%] | inhibition at 10 µM [4] [%] | inhibition at 3 µM (A549, read-out: TGFβ inhibition rate, %) [%]
1 | COc1cc2c(Oc3cc4ccccc4nc3C)ccnc2cc1NCCN1CCOCC1 [Compound r410, [6-Methoxy-4-(2-methyl-quinolin-3-yloxy)-quinolin-7-yl]-(2-morpholin-4-yl-ethyl)-amine] | 91 | 100 |  |  | 
2 | COc1cc2c(Oc3cc4ccccc4nc3C)ccnc2cc1CCCO [Compound r411] | 50 | 85 |  |  | 
3 | COc1cc2c(Oc3cc4ccccc4nc3C)ccnc2cc1CCCN1CCOCC1 [Compound r412] | 77 | 99 |  |  | 
4 | CCOC(=O)/C=C/c1cc2nccc(Oc3cc4ccccc4nc3C)c2cc1OC [Compound r413] | 31 | 76 |  |  | 
5 | COc1cc2nccc(Oc3cc4ccccc4nc3C)c2cc1OCc1ccccc1 [Compound r415, 6-Benzyloxy-7-methoxy-4-(2-methyl-quinolin-3-yloxy)-quinoline] | 77 | 100 |  |  | 
6 | COc1cc2nccc(Oc3cc4ccccc4nc3C)c2cc1OCCn1ccnc1 [Compound r416, 6-(2-Imidazol-1-yl-ethoxy)-7-methoxy-4-(2-methyl-quinolin-3-yloxy)-quinoline] | 92 | 100 |  |  | 
7 | CCOC(=O)c1cc(F)ccc1Sc1ccnc2cc(OC)c(OC)cc12 [Compound r419] | 7 | 67 |  |  | 
8 | COc1cc2nccc(Oc3cc4cccnc4nc3-c3ccccc3)c2cc1OC [Compound r422] | 100 | 100 |  |  | 
9 | CCc1nc2ncccc2cc1Oc1ccnc2cc(OC)c(OC)cc12 [Compound r423] | 88 | 100 |  |  | 
10 | COc1cc2nccc(Oc3cnc4ncccc4c3)c2cc1OC [Compound r427] | 44 | 80 |  |  | 
11 | COc1cc2nccc(Oc3cc(C)c(C)nc3-c3ccc(O)nc3)c2cc1OC [Compound r430] | 19 | 78 |  |  | 
12 | Cc1ccc(-c2nc(C)c(C)cc2Oc2ccnc3ccccc23)nc1 [Compound r431] | 97 | 99 |  |  | 
13 | Cc1ccc(-c2nc(C)c(C)cc2Oc2ccnc3cc(Cl)ccc23)nc1 [Compound r432] | 99 | 100 |  |  | 
14 | COc1cc2c(Oc3cc4cccnc4nc3C)ccnc2cc1OCCN1CCOCC1 [Compound r441] | 97 | 100 |  |  | 
15 | COc1cc2c(Oc3cc(C)c(C)nc3-c3cccc(C)n3)ccnc2cc1OCc1ccccc1 [Compound r442] | 70 | 100 |  |  | 
16 | COc1cc2c(Oc3cc(C)c(C)nc3-c3cccc(C)n3)ccnc2cc1O [Compound r443] | 60 | 97 |  |  | 
17 | COc1cc2c(Oc3cc(C)c(C)nc3-c3cccnc3)ccnc2cc1OCCCCO [Compound r444] | 100 |  |  |  | 
18 | COc1cc2c(Oc3cc(C)c(C)nc3-c3ccccn3)ccnc2cc1OCCCCO [Compound r445] | 99 |  |  |  | 
19 | COc1cc2c(Oc3cc(C)c(C)nc3-c3cccc(C)n3)ccnc2cc1OCC1CO1 (stereo not shown) [Compound r446] | 35 | 89 |  |  | 
20 | COc1cc2c(Oc3cc(C)c(C)nc3-c3cccc(C)n3)ccnc2cc1OCCCO [Compound r447] | 94 | 100 |  |  | 
21 | COc1cc2c(Oc3cc(C)c(C)nc3-c3cccc(C)n3)ccnc2cc1OCC(CO)CO [Compound r448] | 70 | 97 |  |  | 
22 | COc1cc2c(Oc3cc(C)c(C)nc3-c3cccc(C)n3)ccnc2cc1OCC(O)CO (stereo not shown) [Compound r449] | 74 | 98 |  |  | 

Row | Compound | inhibition at 3 µM [1] [%] | inhibition at 10 µM [2] [%] | inhibition at 3 µM [3] [%] | inhibition at 10 µM [4] [%] | inhibition at 3 µM (A549, read-out: TGFβ inhibition rate, %) [%]
23 | COc1cc2c(Oc3cc(C)c(C)nc3-c3cccc(C)n3)ccnc2cc1OCCO [Compound r450] | 94 | 100 |  |  | 
24 | COc1cc2c(Oc3cc4cccnc4nc3C)ccnc2cc1OCCN1CCC(O)CC1 [Compound r451] | 99 | 100 |  |  | 
25 | COc1cc2c(Oc3cc(C)c(C)nc3-c3ccc(C)cn3)ccnc2cc1OCc1ccccc1 [Compound r452] | 67 | 99 |  |  | 
26 | COc1cc2c(Oc3cc(C)c(C)nc3-c3ccc(C)cn3)ccnc2cc1O [Compound r453] | 72 | 98 |  |  | 
27 | COc1cc2c(Oc3cc(C)c(C)nc3-c3nc(C)c(C)s3)ccnc2cc1OCc1ccccc1 [Compound r454] | 41 | 75 |  |  | 
28 | COc1cc2c(Oc3cc(C)c(C)nc3-c3nc(C)c(C)s3)ccnc2cc1O [Compound r455] | 76 | 99 |  |  | 
29 | COc1cc2c(Oc3cc4ccccc4nc3C(C)=O)ccnc2cc1OCCCO [Compound r456] | 99 | 100 |  |  | 
30 | COc1cc2c(Oc3cc(C)c(C)nc3-c3ccc(C)cn3)ccnc2cc1OCC1CO1 (stereo not shown) [Compound r457] | 97 | 100 |  |  | 
31 | COc1cc2c(Oc3cc(C)c(C)nc3-c3nc(C)c(C)s3)ccnc2cc1OCC1CO1 (stereo not shown) [Compound r458] | 94 | 100 |  |  | 
32 | COc1cc2c(Oc3cc(C)c(C)nc3-c3ccc(C)cn3)ccnc2cc1OCCO [Compound r459] | 98 |  |  |  | 
33 | COc1cc2c(Oc3cc(C)c(C)nc3-c3ccc(C)cn3)ccnc2cc1OCCCO [Compound r460] | 97 |  |  |  | 
34 | COc1cc2c(Oc3cc(C)c(C)nc3-c3nc(C)c(C)s3)ccnc2cc1OCCO [Compound r461] | 82 |  |  |  | 
35 | COc1cc2c(Oc3cc(C)c(C)nc3-c3nc(C)c(C)s3)ccnc2cc1OCCCO [Compound r462] | 99 |  |  |  | 
36 | COc1cc2c(Oc3cc(C)c(C)nc3-c3ccc(C)cn3)ccnc2cc1OCC(O)CO (stereo not shown) [Compound r463] | 77 | 99 |  |  | 
37 | COc1cc2c(Oc3cc(C)c(C)nc3-c3nc(C)c(C)s3)ccnc2cc1OCC(O)CO (stereo not shown) [Compound r464] | 97 | 100 |  |  | 
38 | COc1cc2c(Oc3cc(C)c(C)nc3-c3cccc(C)n3)ccnc2cc1OCCCl [Compound r465] | 98 | 100 |  |  | 
39 | COc1cc2c(Oc3cc(C)c(C)nc3-c3ccc(C)cn3)ccnc2cc1OCCCl [Compound r466] | 99 | 100 |  |  | 
40 | COc1cc2c(Oc3cc4ccccc4nc3C(C)=O)ccnc2cc1OCCN1CCCCC1 [Compound r467] | 100 |  |  |  | 
41 | COc1cc2c(Oc3cc(C)c(C)nc3-c3cccc(C)n3)ccnc2cc1OCCNCCO [Compound r468] | 99 |  |  |  | 
42 | COc1cc2nccc(Oc3ccc(C)cc3C)c2cc1OC [r5] |  |  | 13 | 56 | 
43 | CCOC(=O)/C(C)=C/c1cc(OC)ccc1Oc1ccnc2cc(OC)c(OC)cc12 [r8] |  |  | 10 | 59 | 
44 | CCCCC(O)c1cc(C)ccc1Oc1ccnc2cc(OC)c(OC)cc12 (stereo not shown) [r10] |  |  | 38 | 87 | 

Row | Compound | inhibition at 3 µM [1] [%] | inhibition at 10 µM [2] [%] | inhibition at 3 µM [3] [%] | inhibition at 10 µM [4] [%] | inhibition at 3 µM (A549, read-out: TGFβ inhibition rate, %) [%]
45 | COc1cc2nccc(Oc3ccc(C)cc3-c3ccno3)c2cc1OC [r12] |  |  | 21 | 89 | 
46 | COc1cc2nccc(Oc3ccc(C)cc3[N+](=O)[O-])c2cc1OC [r13] |  |  | 28 | 78 | 
47 | COc1cc2nccc(Oc3ccc(C)c(C)c3)c2cc1OC [r15] |  |  | 41 | 84 | 
48 | COc1cc2nccc(Oc3ccc4cc(Br)ccc4c3)c2cc1OC [r18] |  |  | 15 | 69 | 
49 | COc1cc2nccc(Oc3ccc4ncccc4c3)c2cc1OC [r24] |  |  | 66 | 91 | 
50 | COc1ccc(C(C)=O)c(Oc2ccnc3cc(OC)c(OC)cc23)c1 [r31] |  |  | 49 | 98 | 
51 | COc1cc2nccc(Oc3ccc(F)cc3C(C)=O)c2cc1OC [r33] |  |  | 27 | 94 | 
52 | COc1cc2nccc(Oc3ccc(Br)cc3C(C)=O)c2cc1OC [r34] |  |  | 0 | 78 | 
53 | COc1cc(OC)c(C(C)=O)c(Oc2ccnc3cc(OC)c(OC)cc23)c1 [r40] |  |  | 12 | 83 | 
54 | COc1cc2nccc(Oc3ccc4ccccc4c3C(C)=O)c2cc1OC [r42] |  |  | 90 | 93 | 
55 | CCC(=O)c1cccc(F)c1Oc1ccnc2cc(OC)c(OC)cc12 [r43] |  |  | 0 | 66 | 
56 | CCC(=O)c1ccc(OC)cc1Oc1ccnc2cc(OC)c(OC)cc12 [r44] |  |  | 97 | 100 | 
57 | CCC(=O)c1cc(Cl)ccc1Oc1ccnc2cc(OC)c(OC)cc12 [r46] |  |  | 70 | 100 | 
58 | COc1cc2nccc(Oc3ccccc3C(=O)/C=C/c3ccccc3)c2cc1OC [r57] |  |  | 10 | 55 | 
59 | COc1cc2nccc(Oc3ccc(C)cc3C(=O)C3CCCC3)c2cc1OC [r58] |  |  | 90 | 100 | 
60 | COc1cc2nccc(Oc3ccc(C)cc3C(=O)c3ccccc3)c2cc1OC [r72] |  |  |  |  | 98
61 | COc1cc2nccc(Oc3ccc(C)cc3C(=O)c3ccc(C(C)(C)C)cc3)c2cc1OC [r73] |  |  | 24 | 81 | 
62 | COc1ccc(Oc2ccnc3cc(OC)c(OC)cc23)c(C(=O)c2ccccc2)c1 [r74] |  |  | 27 | 84 | 
63 | COc1cc2nccc(Oc3cc(C)c(Cl)cc3C(=O)c3ccccc3)c2cc1OC [r75] |  |  | 97 | 100 | 
64 | COc1cc2nccc(Oc3cccc(C(=O)c4ccccc4)c3)c2cc1OC [r77] |  |  | 0 | 46 | 
65 | COc1cc2nccc(Oc3ccc(C(=O)c4cccc(C)c4)cc3)c2cc1OC [r78] |  |  | 0 | 57 | 
